Measurements taken from paper PMC11868579 (Nature Communications, 2024).
pIC50, pKd: −log10 of the molar value. “And” between values parts separate entries of the source, which are not always exact repeats. Identical values can stand only once.

Columns and labels:
H1299 clone C3-1 = assay: Concentration response of cell survival, clone C3-1, Incucyte; format: cell-based, human; settings: clone C3-1, 5 days continuous exposure
Procedure: Real time monitoring of cell growth was performed with the IncuCyte ZOOM live cell imaging system (Essen BioSciences, USA). Cells were seeded in 96 well plates (Corning, cat#353072) and treated on the next day. The resulting phase-contrast images were analysed using IncuCyte ZOOM 2018A software and results were expressed as percentage confluency of cells.
Supplementary Fig. 14 Treatment of the eIF4E-dTAG-degradation model with negative control dTAGV-1 compound. a Plot of concentration responsiveness versus cell survival for H1299 clone C3-1 following 120 hr exposure to different concentrations of dTAGv-1. Cell confluency (%) was calculated using Incucyte Zoom software and plotted as the mean ± SD from 3 biological replicates. b Immunoblot of […]
clone treated with 0.5 µM dTAGV-1 or the negative control dTAGV-1 compound for the indicated times. Vinculin was used as a loading control. The immunoblot shown is representative of 3 biological replicates. c Real-time cell confluency measurements of H1299 parental cells treated with 0.5 or 1 µM of dTAGV-1 or the negative control […]
2) treated with 0.5 or 1 µM of the negative control dTAGV-1 compound. Cells were monitored every 4 hr over a 6-day period. Cell confluency (%) was calculated using Incucyte Zoom software and shown as the mean ± SEM from 3 biological replicates.
(§1) (1 picture or pasted object on this page, not shown here)

[1] = test system: eIF4E WT or mutant expression; assay: Immunoblot of eIF4E rescue construct expression; format: cell-based, human; settings: n=3
Source text: Supplementary Fig. 17. Transfection of wild type eIF4E or a series of mutants […]
clone. a Scheme of the workflow to generate genetic rescue models by expression of wild type (WT) eIF4E or mutant eIF4E in the dTAG eIF4E CRISPR clones (Created in BioRender. Powers, M. (2024) https://BioRender.com/q02f176). b Representative […]
replicates). Vinculin was used as a loading control. The immunoblots were cropped to […]
(1 picture or pasted object on this page, not shown here) […]
aid interpretation of the data, original immunoblot images for all repeats are available in the Supplementary Source Data. d Quantification of MCL1 immunoblot signals using Image J. Results are expressed as % MCL-1 normalized to vinculin (mean ± SEM from (c) plus 2 additional biological replicates (see Supplementary Source Data).
Significance (p<0.05) was determined using a one sample t-test (two-tailed) comparing treatment with the control from each cell line. Significance was observed […]
p=0.0153) expressing cells. p values are denoted as *p<0.05, **p<0.01, ***p<0.001, […]
and f 16 hr from (c), using Image J. A one sample t -test was performed for each cell treatment compared to their control and found no significant differences for either tim e point (p>0.05) . Comparison of the control conditions for expression of each mutant with the overexpressed WT using an ordinary one-way ANOVA with Tukey multiple comparisons test found all mutants p<0.001 except S209A (p=0.0337) at 6 hr and all

[2] = molecular target: T1, eIF4E minor variant D127N (N127) (Homo sapiens, UniProt P06730, D127N); assay: Isothermal titration calorimetry, eIF4E minor variant; format: binding
T1 construct: made in house; host or cells: E. coli BL21-CodonPlus (DE3)-RIPL
Procedure: ITC experiments were performed on either a MicroCal VP-ITC or a MicroCal Auto-ITC200 at 25 °C in a buffer comprising 50 mM HEPES, 100 mM NaCl, 1 mM TCEP and 5% DMSO at pH 7.5. Typical titrations on the MicroCal VP-ITC were performed using 17 × 16.4 µL injections with a 250 s spacing between each injection and with a stirring speed of 307 rpm. Typical titrations on the MicroCal Auto-ITC200 were performed using 12 × 3 µL injections with a 150 s spacing between each injection and with a stirring speed of 750 rpm. ITC data analyses were performed with Origin 7.0 software using the “One Set of Sites” model.

[3] = format: physicochemical
Source text: Chrom kinetic Plasma Caco-2 microsomal
Cmpd Chemical MW LogD solubility protein permeability intrinsic
# Structure (Da) (pH binding (Papp x10-6 clearance […]
Supplementary notes Table Physicochemical and in vitro pharmacokinetic properties of compound 4.
Experimental procedures for the measurement of ChromLogD, aqueous solubility, plasma protein binding, Caco2 permeability and microsomal […]
Determination of Chromatographic LogD (ChromLogD7.4)
Chromatographic hydrophobicity index (CHI) values were measured using reversed phase HPLC column (PolymerX RP-1, Phenomenex, UK) with a fast acetonitrile gradient at starting mobile phase of pH = 7.4. CHI values are derived directly from the gradient retention times by using a calibration line obtained for standard compounds.
The CHI value approximates to the volume % organic concentration when the compound elutes. CHI is linearly transformed into ChromLogD7.4 by least-square fitting of experimental CHI values to calculated C logP values for over 20,000 research compounds using the following formula: ChromLogD7.4 = 0.0857CHI-2.001.
as §1

[4] = Suppl Fig. 10c, concentration response of Compound 4 (test not named); settings: 3 experiments

T1 sequence (P06730 36-217 D127N): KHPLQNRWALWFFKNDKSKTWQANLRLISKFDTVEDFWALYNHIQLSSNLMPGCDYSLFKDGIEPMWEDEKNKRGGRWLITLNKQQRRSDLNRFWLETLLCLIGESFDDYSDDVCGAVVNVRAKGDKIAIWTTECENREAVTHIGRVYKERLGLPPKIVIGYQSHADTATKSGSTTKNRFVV

CC[C@H](C(=O)N1CCCC[C@H]1C(=O)O[C@H](CCc1ccc(OC)c(OC)c1)c1ccccc1OCC(=O)NCCCCCCC(=O)N[C@H](C(=O)N1C[C@H](O)C[C@H]1C(=O)N[C@@H](C)c1ccc(-c2scnc2C)cc1)C(C)(C)C)c1cc(OC)c(OC)c(OC)c1 [dTAG^V-1]
pIC50 (H1299 clone C3-1): 6.69 | Quantification of eIF4E (6 hr) normalised to WT expression, Average ([1]; C3-1, 0.5 uM): 0.00 | Quantification of eIF4E (16 hr) normalised to WT expression, Average ([1]; C3-1, 0.5 uM): 0.00 | Quantification of eIF4E (6 hr) normalised to WT expression, Average ([1]; C3-1, 1 uM): 0.00 | Quantification of eIF4E (16 hr) normalised to WT expression, Average ([1]; C3-1, 1 uM): 0.00 | Quantification of eIF4E (6 hr) normalised to WT expression, Average ([1]; L85R, 0.5 uM): 51.11 | Quantification of eIF4E (16 hr) normalised to WT expression, Average ([1]; L85R, 0.5 uM): 19.14 | Quantification of eIF4E (6 hr) normalised to WT expression, Average ([1]; L85R, 1 uM): 46.78 | Quantification of eIF4E (16 hr) normalised to WT expression, Average ([1]; L85R, 1 uM): 21.33 | Quantification of eIF4E (6 hr) normalised to WT expression, Average ([1]; L134R, 0.5 uM): 32.49 | Quantification of eIF4E (16 hr) normalised to WT expression, Average ([1]; L134R, 0.5 uM): 17.61 | Quantification of eIF4E (6 hr) normalised to WT expression, Average ([1]; L134R, 1 uM): 23.94 | Quantification of eIF4E (16 hr) normalised to WT expression, Average ([1]; L134R, 1 uM): 19.17 | Quantification of eIF4E (6 hr) normalised to WT expression, Average ([1]; S209A, 0.5 uM): 94.19 | Quantification of eIF4E (16 hr) normalised to WT expression, Average ([1]; S209A, 0.5 uM): 103.66 | Quantification of eIF4E (6 hr) normalised to WT expression, Average ([1]; S209A, 1 uM): 88.26 | Quantification of eIF4E (16 hr) normalised to WT expression, Average ([1]; S209A, 1 uM): 106.16 | Quantification of eIF4E (16 hr) normalised to WT expression, Average ([1]; W56A, 0.5 uM (Conc column empty, by row)): 63.22 | Quantification of eIF4E (6 hr) normalised to WT expression, Average ([1]; W56A, 0.5 uM): 56.71 | Quantification of eIF4E (16 hr) normalised to WT expression, Average ([1]; W56A, 1 uM (Conc column empty, by row)): 50.88 | Quantification of eIF4E (6 hr) normalised to WT expression, Average ([1]; W56A, 1 uM): 52.12 | Quantification of eIF4E (6 hr) normalised to WT expression, Average ([1]; W73F/L85R, 0.5 uM): 30.95 | Quantification of eIF4E (16 hr) normalised to WT expression, Average ([1]; W73F/L85R, 0.5 uM): 15.77 | Quantification of eIF4E (6 hr) normalised to WT expression, Average ([1]; W73F/L85R, 1 uM): 30.11 | Quantification of eIF4E (16 hr) normalised to WT expression, Average ([1]; W73F/L85R, 1 uM): 16.64 | Quantification of eIF4E (6 hr) normalised to WT expression, Average ([1]; W73F, 0.5 uM): 72.55 | Quantification of eIF4E (16 hr) normalised to WT expression, Average ([1]; W73F, 0.5 uM): 42.45 | Quantification of eIF4E (6 hr) normalised to WT expression, Average ([1]; W73F, 1 uM): 71.88 | Quantification of eIF4E (16 hr) normalised to WT expression, Average ([1]; W73F, 1 uM): 30.23 | Quantification of eIF4E (6 hr) normalised to WT expression, Average ([1]; WT, 0.5 uM): 100.00 | Quantification of eIF4E (16 hr) normalised to WT expression, Average ([1]; WT, 0.5 uM): 100.00 | Quantification of eIF4E (6 hr) normalised to WT expression, Average ([1]; WT, 1 uM): 100.00 | Quantification of eIF4E (16 hr) normalised to WT expression, Average ([1]; WT, 1 uM): 100.00

CC[C@H](O[C@H](C)CO)c1ccc(-c2ccccc2F)cc1NCCO [Compound 4]
enthalpic contribution DH ([2]; ITC, eIF4E D127N): -12.0 kcal/mol and -12.0 ± 0.5 kcal/mol | entropic penalty -TDS ([2]; ITC, eIF4E D127N): 1.4 ± 0.5 kcal/mol | LE (ligand efficiency) ([2]; minor variant D127N): 0.42 (kcal/mol)/heavy atom | pKd ([2]; read-out: eIF4E Kd, ITC, minor variant D127N): 7.77 | Chrom LogD (pH 7.5) [3]: 4.6 | Suppl Fig. 10c signal, Average ([4]; Conc 0.0398 uM): 107.08 | Suppl Fig. 10c signal, Average ([4]; Conc 0.0794 uM): 87.69 | Suppl Fig. 10c signal, Average ([4]; Conc 0.1585 uM): 100.85 | Suppl Fig. 10c signal, Average ([4]; Conc 0.3126 uM): 97.88 | Suppl Fig. 10c signal, Average ([4]; Conc 0.6252 uM): 95.93 | Suppl Fig. 10c signal, Average ([4]; Conc 1.0000 uM): 93.39 | Suppl Fig. 10c signal, Average ([4]; Conc 1.9999 uM): 114.58 | Suppl Fig. 10c signal, Average ([4]; Conc 3.9994 uM): 94.77 | Suppl Fig. 10c signal, Average ([4]; Conc 10.0000 uM): 126.74
